Patent US12441726B2, “Compounds and uses thereof” (Foghorn Therapeutics Inc., priority 2020, dated 2025)

How the values were obtained:
BRM = BRM (Homo sapiens, UniProt P51531); assay: ATPase catalytic activity assay (ADP-Glo), BRM; settings: 30 nM BRM, 400 μM ATP; for IC50: BRM ATPase: IC50 (uM)
BRG-1 = BRG-1 (Homo sapiens, UniProt P51532); assay: ATPase catalytic activity assay (ADP-Glo), BRG-1; settings: for Emax: 1 h, read-out: BRG1 Max % Inhibition, ADP-Glo, 30 nM BRG-1, 400 μM ATP
Sequence of BRG-1 (P51532 whole entry): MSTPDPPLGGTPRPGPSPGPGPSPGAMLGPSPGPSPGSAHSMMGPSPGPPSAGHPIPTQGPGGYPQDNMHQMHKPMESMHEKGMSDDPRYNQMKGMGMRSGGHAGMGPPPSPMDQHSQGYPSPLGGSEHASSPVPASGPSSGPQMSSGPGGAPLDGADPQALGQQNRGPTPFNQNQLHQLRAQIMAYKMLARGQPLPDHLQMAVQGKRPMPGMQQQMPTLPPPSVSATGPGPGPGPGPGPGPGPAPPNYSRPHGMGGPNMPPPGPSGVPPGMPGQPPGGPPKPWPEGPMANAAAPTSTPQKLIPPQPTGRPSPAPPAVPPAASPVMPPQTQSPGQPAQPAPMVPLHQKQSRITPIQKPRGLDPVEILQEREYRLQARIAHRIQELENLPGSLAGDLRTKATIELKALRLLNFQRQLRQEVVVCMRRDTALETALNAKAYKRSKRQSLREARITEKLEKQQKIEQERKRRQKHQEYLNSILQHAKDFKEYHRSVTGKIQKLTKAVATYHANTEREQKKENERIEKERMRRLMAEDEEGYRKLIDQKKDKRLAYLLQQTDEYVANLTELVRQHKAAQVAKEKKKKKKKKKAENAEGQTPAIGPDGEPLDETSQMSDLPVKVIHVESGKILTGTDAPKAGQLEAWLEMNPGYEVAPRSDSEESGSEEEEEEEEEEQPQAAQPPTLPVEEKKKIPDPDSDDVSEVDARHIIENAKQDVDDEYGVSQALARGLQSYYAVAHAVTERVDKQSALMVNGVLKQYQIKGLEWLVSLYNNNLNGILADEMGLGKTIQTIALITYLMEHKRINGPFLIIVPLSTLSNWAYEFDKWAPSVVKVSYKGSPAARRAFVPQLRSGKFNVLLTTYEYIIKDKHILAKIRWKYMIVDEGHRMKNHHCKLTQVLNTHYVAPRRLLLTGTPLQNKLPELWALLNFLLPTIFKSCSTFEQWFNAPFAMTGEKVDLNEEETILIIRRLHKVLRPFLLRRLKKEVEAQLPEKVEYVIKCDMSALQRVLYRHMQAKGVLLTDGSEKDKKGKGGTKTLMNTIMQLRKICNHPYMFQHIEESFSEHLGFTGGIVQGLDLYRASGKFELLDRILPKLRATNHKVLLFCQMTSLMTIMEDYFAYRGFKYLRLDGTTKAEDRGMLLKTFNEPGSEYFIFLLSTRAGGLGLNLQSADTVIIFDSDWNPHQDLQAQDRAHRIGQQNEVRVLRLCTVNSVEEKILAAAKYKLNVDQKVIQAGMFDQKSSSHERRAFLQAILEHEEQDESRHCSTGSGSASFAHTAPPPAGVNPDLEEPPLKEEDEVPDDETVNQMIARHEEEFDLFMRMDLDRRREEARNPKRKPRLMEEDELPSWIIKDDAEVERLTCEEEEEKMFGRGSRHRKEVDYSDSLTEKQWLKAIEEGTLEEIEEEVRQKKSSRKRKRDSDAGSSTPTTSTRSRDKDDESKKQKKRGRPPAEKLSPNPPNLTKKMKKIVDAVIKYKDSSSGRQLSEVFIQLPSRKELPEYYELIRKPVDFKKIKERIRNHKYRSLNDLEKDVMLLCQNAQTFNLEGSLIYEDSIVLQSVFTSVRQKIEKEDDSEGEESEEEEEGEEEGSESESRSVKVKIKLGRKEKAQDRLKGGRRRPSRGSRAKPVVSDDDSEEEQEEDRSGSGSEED
Protocol: The ATPase catalytic activity of BRM or BRG-1 was measured by an in vitro biochemical assay using ADP-Glo™ (Promega, V9102). The ADP-Glo™ kinase assay is performed in two steps once the reaction is complete. The first step is to deplete any unconsumed ATP in the reaction. The second step is to convert the reaction product ADP to ATP, which will be utilized by the luciferase to generate luminesce and be detected by a luminescence reader, such as Envision.
Then following addition of 5 μL of ADP-Glo™ Reagent provided in the kit, the reaction incubates at room temperature for 40 minutes. Then 10 μL of Kinase Detection Reagent provided in the kit is added to convert ADP to ATP, and the reaction incubates at room temperature for 60 minutes. Finally, luminescence measurement is collected with a plate-reading luminometer, such as Envision.

Sequence of BRM (P51531 whole entry): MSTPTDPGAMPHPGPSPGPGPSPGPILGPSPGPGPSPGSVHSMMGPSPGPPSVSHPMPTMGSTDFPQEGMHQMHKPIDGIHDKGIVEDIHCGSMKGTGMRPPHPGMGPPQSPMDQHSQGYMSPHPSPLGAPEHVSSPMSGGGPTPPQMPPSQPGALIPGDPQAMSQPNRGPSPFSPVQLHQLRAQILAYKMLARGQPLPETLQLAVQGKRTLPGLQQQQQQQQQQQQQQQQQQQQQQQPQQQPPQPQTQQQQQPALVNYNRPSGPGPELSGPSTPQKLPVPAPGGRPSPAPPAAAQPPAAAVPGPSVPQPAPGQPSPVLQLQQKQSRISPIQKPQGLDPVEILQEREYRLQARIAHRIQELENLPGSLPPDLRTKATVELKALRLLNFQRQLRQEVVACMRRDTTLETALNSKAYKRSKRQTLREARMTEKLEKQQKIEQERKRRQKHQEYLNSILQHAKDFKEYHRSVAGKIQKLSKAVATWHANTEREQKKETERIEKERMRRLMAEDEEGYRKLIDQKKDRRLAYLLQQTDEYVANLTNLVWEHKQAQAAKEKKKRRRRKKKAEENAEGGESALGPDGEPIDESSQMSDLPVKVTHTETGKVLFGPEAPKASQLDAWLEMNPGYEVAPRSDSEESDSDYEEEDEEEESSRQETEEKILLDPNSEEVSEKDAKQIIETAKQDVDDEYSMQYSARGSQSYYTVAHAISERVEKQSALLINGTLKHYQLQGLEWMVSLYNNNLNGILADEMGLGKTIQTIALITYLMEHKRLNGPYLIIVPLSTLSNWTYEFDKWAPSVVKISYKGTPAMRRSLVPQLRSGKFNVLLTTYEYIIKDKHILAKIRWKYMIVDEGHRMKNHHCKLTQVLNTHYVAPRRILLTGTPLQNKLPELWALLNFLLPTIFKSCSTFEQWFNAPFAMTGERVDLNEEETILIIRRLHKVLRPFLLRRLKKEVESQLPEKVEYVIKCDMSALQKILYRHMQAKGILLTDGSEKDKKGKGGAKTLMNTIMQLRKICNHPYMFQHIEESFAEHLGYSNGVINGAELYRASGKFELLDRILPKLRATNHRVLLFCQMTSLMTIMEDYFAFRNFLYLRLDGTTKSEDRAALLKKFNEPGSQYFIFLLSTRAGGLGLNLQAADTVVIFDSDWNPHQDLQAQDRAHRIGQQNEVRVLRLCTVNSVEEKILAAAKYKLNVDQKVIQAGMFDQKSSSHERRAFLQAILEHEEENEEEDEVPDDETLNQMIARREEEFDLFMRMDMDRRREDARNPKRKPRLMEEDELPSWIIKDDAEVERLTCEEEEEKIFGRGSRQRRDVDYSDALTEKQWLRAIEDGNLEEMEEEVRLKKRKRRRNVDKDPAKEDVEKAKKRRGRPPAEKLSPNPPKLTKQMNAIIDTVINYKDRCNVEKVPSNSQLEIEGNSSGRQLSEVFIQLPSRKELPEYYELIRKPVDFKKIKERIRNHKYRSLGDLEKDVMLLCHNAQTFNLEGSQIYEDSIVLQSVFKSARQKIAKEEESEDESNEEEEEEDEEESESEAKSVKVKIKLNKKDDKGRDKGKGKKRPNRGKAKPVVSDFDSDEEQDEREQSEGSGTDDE

BRM Max % Inhibition (BRM) [%] | IC50 (BRM) [µM] | IC50 (BRG-1) [nM] | Emax (BRG-1) [%] | Structure (SMILES)
103 | < 0.1 | < 100 | 100 | C[C@@]1(C#N)COCc2ccc(C(=O)NCc3cc4nc(-c5cccc(N6CCOCC6)n5)ccc4cn3)cc21 [Compound 373]
101 | < 0.1 | 100 to 500 | 94 | C[C@@]1(C#N)COCc2ccc(C(=O)NCc3cc4nc(-c5cncc(N6CC(F)C6)n5)ccc4cn3)cc21 [Compound 374]
100 | < 0.1 | < 100 | 101 | O=C(NCc1cc2nc(-c3cncc(N4CCC4)n3)ccc2cn1)c1cc(F)c2c(c1)[C@](F)(C(F)F)COC2 [Compound 375]
98 | 0.1 to 0.5 | 500 to 1000 | 79 | C[C@H]1COCCN1c1nccc(-c2ccc3cnc(CNC(=O)c4ccc5c(c4)[C@](C)(C#N)COC5)cc3n2)n1 [Compound 376]
98 | < 0.1 | 500 to 1000 | 89 | C[C@@]1(C#N)COCc2ccc(C(=O)NCc3cc4cc(-c5ccnc(N6CCC6)n5)cnc4cn3)cc21 [Compound 377]
100 | < 0.1 | 100 to 500 | 99 | C[C@@]1(C#N)COCc2ccc(C(=O)NCc3cc4nc(-c5cccc(N6CCCC6=O)n5)ccc4cn3)cc21 [Compound 378]
101 | < 0.1 | < 100 | 100 | C[C@@]1(C#N)COCc2ccc(C(=O)NCc3cc4nc(-c5cccc(C6(O)CC6)n5)ccc4cn3)cc21 [Compound 384]
100 | < 0.1 | 100 to 500 | 95 | C[C@@]1(C#N)COCc2ccc(C(=O)NCc3cc4nc(-c5cccc(N6CCC6=O)n5)ccc4cn3)cc21 [Compound 392]
99 | < 0.1 | < 100 | 96 | C[C@@]1(C#N)COCc2ccc(C(=O)NCc3cc4nc(-c5cccc(N6CCC6=O)c5)ccc4cn3)cc21 [Compound 393]
101 | < 0.1 | 100 to 500 | 93 | COCC1CN(c2cncc(-c3ccc4cnc(CNC(=O)c5ccc6c(c5)[C@](C)(C#N)COC6)cc4n3)n2)C1 [Compound 394]
92 | 0.1 to 0.5 | 500 to 1000 | 62 | C[C@@]1(F)COCc2ncc(C(=O)NCc3cc4nc(-c5cncc(N6CCC6)n5)ccc4cn3)cc21 [Compound 395]
74 | 0.1 to 0.5 | > 1000 | 32 | CC(=O)N(C)c1cccc(-c2ccc3cnc(CNC(=O)c4ccc5c(c4)[C@](C)(C#N)COC5)cc3n2)n1 [Compound 396]
93 | 0.1 to 0.5 | 500 to 1000 | 66 | C[C@@]1(C#N)COCc2ccc(C(=O)NCc3cc4nc(-c5ccnc(C6CCOCC6)n5)ccc4cn3)cc21 [Compound 397]
98 | < 0.1 | 100 to 500 | 91 | C[C@@]1(F)COCc2c(F)cc(C(=O)NCc3cc4nc(-c5cncc(N6CCC6)n5)ccc4cn3)cc21 [Compound 398]
100 | < 0.1 | 100 to 500 | 98 | C[C@@]1(C#N)COCc2c(F)cc(C(=O)NCc3cc4nc(-c5cncc(N6CCC6)n5)ccc4cn3)cc21 [Compound 399]
96 | 0.1 to 0.5 | 500 to 1000 | 68 | C[C@@]1(C#N)COCc2c(F)cc(C(=O)NCc3cc4nc(-c5ccccc5)ccc4cn3)cc21 [Compound 400]
97 | < 0.1 | 100 to 500 | 91 | C[C@@]1(F)COCc2ccc(C(=O)NCc3cc4nc(-c5cncc(N6CCC6)n5)ccc4cn3)cc21 [Compound 401]
96 | < 0.1 | 500 to 1000 | 74 | C[C@@]1(C#N)COCc2ccc(C(=O)NCc3cc4c(cn3)CCN(c3cccc(N5CCC5)n3)C4)cc21 [Compound 402]
99 | < 0.1 | 100 to 500 | 91 | C[C@@]1(C#N)COCc2ccc(C(=O)NCc3cc4nc(-c5ccnc(N6CC7(COC7)C6)n5)ccc4cn3)cc21 [Compound 403]
93 | 0.1 to 0.5 | 100 to 500 | 78 | C[C@@]1(C#N)COCc2ccc(C(=O)NCc3cc4nc(-c5cncc(N6CC(F)(F)C6)n5)ccc4cn3)cc21 [Compound 404]
85 | 0.1 to 0.5 | 500 to 1000 | 55 | C[C@@]1(C#N)COCc2ccc(C(=O)NCc3cc4nc(-c5cnn6c5OCCC6)ccc4cn3)cc21 [Compound 405]
100 | < 0.1 | 100 to 500 | 93 | C[C@@]1(C#N)COCc2ccc(C(=O)NCc3cc4nc(-c5cncc(C6CC6)n5)ccc4cn3)cc21 [Compound 406]

BRM Max % Inhibition (BRM) [%] | IC50 (BRM) [µM] | IC50 (BRG-1) [nM] | Emax (BRG-1) [%] | Structure (SMILES)
99 | < 0.1 | 100 to 500 | 97 | CN(C)c1cncc(-c2ccc3cnc(CNC(=O)c4ccc5c(c4)[C@](C)(C#N)COC5)cc3n2)n1 [Compound 407]
91 | 0.1 to 0.5 | 500 to 1000 | 65 | Cc1cncc(-c2ccc3cnc(CNC(=O)c4ccc5c(c4)[C@](C)(C#N)COC5)cc3n2)n1 [Compound 408]
96 | < 0.1 | 100 to 500 | 95 | COC1CN(c2cncc(-c3ccc4cnc(CNC(=O)c5ccc6c(c5)[C@](C)(C#N)COC6)cc4n3)n2)C1 [Compound 409]
93 | 0.1 to 0.5 | 500 to 1000 | 75 | CC(C)(O)c1cccc(-c2ccc3cnc(CNC(=O)c4ccc5c(c4)[C@](C)(C#N)COC5)cc3n2)n1 [Compound 410]
91 | 0.1 to 0.5 | 500 to 1000 | 50 | C[C@@]1(C#N)COCc2ccc(C(=O)NCc3cc4nc(-n5cc(F)cn5)ccc4cn3)cc21 [Compound 411]
99 | < 0.1 | 100 to 500 | 98 | C[C@@]1(C#N)COCc2ccc(C(=O)NCc3cc4nc(-c5ccnc(N6CCC6)c5F)ccc4cn3)cc21 [Compound 412]
92 | 0.1 to 0.5 | 500 to 1000 | 51 | C[C@@]1(F)COCc2ncc(C(=O)NCc3cc4nc(-c5ccccc5)ccc4cn3)cc21 [Compound 413]
91 | 0.1 to 0.5 | 500 to 1000 | 67 | C[C@@]1(C#N)COCc2ccc(C(=O)NCc3cc4nc(-c5cnc(N6CCC6)cn5)ccc4cn3)cc21 [Compound 414]
99 | < 0.1 | < 100 | 95 | C[C@@]1(C#N)COCc2ccc(C(=O)NCc3cc4nc(-c5cncc(N6CCCC6)n5)ccc4cn3)cc21 [Compound 415]
99 | < 0.1 | 100 to 500 | 95 | C[C@@]1(C#N)COCc2ccc(C(=O)NCc3cc4nc(-c5ccnc(N6CCOCC6)n5)ccc4cn3)cc21 [Compound 416]
97 | < 0.1 | 100 to 500 | 91 | C[C@@]1(C#N)COCc2ccc(C(=O)NCc3cc4nc(-c5ccnc(C6CC6)n5)ccc4cn3)cc21 [Compound 417]
90 | 0.1 to 0.5 | > 1000 | 51 | COC1(c2cccc(-c3ccc4cnc(CNC(=O)c5ccc6c(c5)[C@](C)(C#N)COC6)cc4n3)c2)COC1 [Compound 418]
93 | 0.1 to 0.5 | 500 to 1000 | 64 | COC1(c2cccc(-c3ccc4cnc(CNC(=O)c5ccc6c(c5)[C@](C)(C#N)COC6)cc4n3)n2)COC1 [Compound 419]
98 | < 0.1 | 100 to 500 | 89 | C[C@@]1(C#N)COCc2ccc(C(=O)NCc3cc4nc(-c5ccnc(C6CCC6)n5)ccc4cn3)cc21 [Compound 420]
84 | 0.1 to 0.5 | > 1000 | 37 | CN1CC(c2cccc(-c3ccc4cnc(CNC(=O)c5ccc6c(c5)[C@](C)(C#N)COC6)cc4n3)c2)C1 [Compound 421]
99 | < 0.1 | < 100 | 97 | COC1CCN(c2nccc(-c3ccc4cnc(CNC(=O)c5ccc6c(c5)[C@](C)(C#N)COC6)cc4n3)n2)C1 (stereo partly shown) [Compound 422]
98 | < 0.1 | 100 to 500 | 89 | COc1cncc(-c2ccc3cnc(CNC(=O)c4ccc5c(c4)[C@](C)(C#N)COC5)cc3n2)n1 [Compound 423]
99 | < 0.1 | < 100 | 96 | CN(C)c1nccc(-c2ccc3cnc(CNC(=O)c4ccc5c(c4)[C@](C)(C#N)COC5)cc3n2)n1 [Compound 424]
98 | < 0.1 | 100 to 500 | 93 | C[C@@]1(C#N)COCc2ccc(C(=O)NCc3cc4nc(-n5cc(F)c(N6CCC6)n5)ccc4cn3)cc21 [Compound 425]
97 | 0.1 to 0.5 | 500 to 1000 | 78 | C[C@@]1(C#N)COCc2ccc(C(=O)NCc3cc4nc(-n5ccc(N6CCC6)n5)ccc4cn3)cc21 [Compound 426]
99 | < 0.1 | 100 to 500 | 87 | CN1Cc2nc(-c3ccc4cnc(CNC(=O)c5ccc6c(c5)[C@](C)(C#N)COC6)cc4n3)ccc2C1=O [Compound 427]
